For 53 compounds, IC50 results are on record in patent publication US9518064B2, “Imidazothiadiazole and imidazopyridazine derivatives as protease activated receptor 4 (PAR4) inhibitors for treating platelet aggregation” (BRISTOL-MYERS SQUIBB COMPANY, priority 2012, dated 2016).

The target in this test is PAR4 (Homo sapiens (Human), UniProt Q96RI0). Put plainly: FLIPR assay in PAR4-expressing HEK293 cells (calcium mobilization). It counts as cell-based. The settings on record: PAR4 antagonist activity, FLIPR assay as described in Example A. On the technique in general: Calcium flux is commonly read through the fluorescence of an indicator in the cells.

Molecules are shown by their SMILES. pIC50: −log10 of the molar value.

PAR4, sequence (Q96RI0 18-385): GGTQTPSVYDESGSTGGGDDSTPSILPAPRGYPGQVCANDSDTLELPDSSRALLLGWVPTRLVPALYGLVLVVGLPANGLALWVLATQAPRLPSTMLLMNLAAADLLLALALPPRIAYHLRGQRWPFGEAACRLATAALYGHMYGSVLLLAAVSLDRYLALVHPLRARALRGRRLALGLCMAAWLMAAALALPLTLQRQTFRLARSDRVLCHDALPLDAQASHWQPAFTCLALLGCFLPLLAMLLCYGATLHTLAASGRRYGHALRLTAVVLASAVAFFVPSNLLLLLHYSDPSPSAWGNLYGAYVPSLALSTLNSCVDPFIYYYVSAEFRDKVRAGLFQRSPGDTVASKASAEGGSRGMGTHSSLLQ

Broadly, the pIC50 is the IC50 on a negative log10 scale, so that one unit is a factor of ten. Turning to `COc1cc(OCc2cncc(-c3ccc(Cl)nc3)c2)c2cc(-c3cn4nc(OC)sc4n3)oc2c1` [Example 74], the pIC50 is 8.80.

`COc1cc(OCc2cccc(-c3ccc(O)cn3)c2)c2cc(-c3cn4nc(OC)sc4n3)oc2c1` [Example 91]: the pIC50 was 8.04.

Turning to `COc1cc(OCc2cccc(-c3cnc(OC)cc3C)c2)c2cc(-c3cn4nc(OC)sc4n3)oc2c1` [Example 51], the pIC50 is 8.92.

As for `COc1cc(OCc2cccc(-c3ncc(F)cc3F)c2)c2cc(-c3cn4nc(OC)sc4n3)oc2c1` [Example 33], the pIC50 was 9.17.

Take `COc1cc(OCc2cncc(-c3cnc(OC)nc3)c2)c2cc(-c3cn4nc(OC)sc4n3)oc2c1` [Example 75]: the pIC50 was 8.67.

Turning to `COc1ccc(-c2cccc(COc3cc(OC)cc4oc(-c5cn6nc(OC)sc6n5)cc34)c2)c(C)c1` [Example 8], the pIC50 is 8.77.

Consider `COc1cc(OCc2cccc(-c3ccc4nncn4c3)c2)c2cc(-c3cn4nc(OC)sc4n3)oc2c1` [Example 22], for which the negative-log IC50 (pIC50) was 7.63.

In the case of `COc1cc(OCc2cccc(C3(OC)CCOCC3)n2)c2cc(-c3cn4nc(OC)sc4n3)oc2c1` [Example 111, 2-Methoxy-6-(6-methoxy-4-((6-(4-methoxytetrahydro-2H-pyran-4-yl)pyridin-2-yl)methoxy)benzofuran-2-yl)imidazo[2,1-b][1,3,4]thiadiazole], the pIC50 is 9.64.

In the case of `COc1ccc(-c2cncc(COc3cc(OC)cc4oc(-c5cn6nc(OC)sc6n5)cc34)c2)cc1` [Example 73], the pIC50 was 8.66.

Turning to `COc1cc(OCc2cccc(C3CCOCC3)c2)c2cc(-c3cn4nc(OC)sc4n3)oc2c1` [Example 92, 2-Methoxy-6-(6-methoxy-4-((3-(tetrahydro-2H-pyran-4-yl)benzyl)oxy)benzofuran-2-yl)imidazo[2,1-b][1,3,4]thiadiazole], the pIC50 was 9.14.

As for `COc1cc(OCc2cc(F)cc(-c3ncc(F)cc3F)c2)c2cc(-c3cn4nc(OC)sc4n3)oc2c1` [Example 70], the pIC50 is 8.83.

With `COc1cc(OCc2cccc(-c3c(C)noc3C)c2)c2cc(-c3cn4nc(OC)sc4n3)oc2c1` [Example 5], the pIC50 is 8.63.

Turning to `COc1cc(OCc2cccc(-c3ccc4nsnc4c3)c2)c2cc(-c3cn4nc(OC)sc4n3)oc2c1` [Example 20], the pIC50 was 8.07.

As to `COc1cc(OCc2cccc(-c3ncc(Cl)cc3Cl)c2)c2cc(-c3cn4nc(OC)sc4n3)oc2c1` [Example 54], the pIC50 was 8.83.

On to `COc1cc(OCc2cccc(-c3ccc(Cl)nc3)c2)c2cc(-c3cn4nc(OC)sc4n3)oc2c1` [Example 56], for which the pIC50 is 9.13.

On to `COc1cc(OCc2cccc(-c3ccc(F)cn3)c2)c2cc(-c3cn4nc(OC)sc4n3)oc2c1` [Example 14], for which the pIC50 was 8.82.

On to `COc1cc(OCc2cccc(-c3ccc(F)cn3)c2)c2cc(-c3cn4nc(C(C)(F)F)sc4n3)oc2c1` [Example 67], for which the pIC50 was 8.34.

For the compound `COc1cc(OCc2cccc(-c3ccc(Cl)cn3)c2)c2cc(-c3cn4nc(OC)sc4n3)oc2c1` [Example 36], the pIC50 was 9.42.

As for `COc1cc(OCc2ccnc(C3CC3)n2)c2cc(-c3cn4nc(OC)sc4n3)oc2c1` [Example 103], the pIC50 is 8.86.

For `COc1ccc(-c2cccc(COc3cc(OC)cc4oc(-c5cn6nc(OC)sc6n5)cc34)n2)cc1` [Example 78], the pIC50 is 9.02.

As for `COc1cnc(-c2cccc(COc3cc(Cl)cc4oc(-c5cn6nc(OC)sc6n5)cc34)c2)cn1` [Example 108, 6-(6-Chloro-4-((3-(5-methoxypyrazin-2-yl)benzyl)oxy)benzofuran-2-yl)-2-methoxyimidazo[2,1-b][1,3,4]thiadiazole], the pIC50 was 8.84.

As for `COc1cc(OCc2cccc(C3(OC)CCOCC3)n2)c2cc(-c3cn4nc([C@H](C)F)sc4n3)oc2c1` [Example 112, (S)-2-(1-Fluoroethyl)-6-(6-methoxy-4-((6-(4-methoxytetrahydro-2H-pyran-4-yl)pyridin-2-yl)methoxy)benzofuran-2-yl)imidazo[2,1-b][1,3,4]thiadiazole], the pIC50 is 9.44.

For the compound `COc1cc(OCc2cccc(-c3cc4ccccc4s3)c2)c2cc(-c3cn4nc(OC)sc4n3)oc2c1` [Example 4], the pIC50 is 8.03.

Take `COc1cc(OCc2cccc(C3CCCCC3)c2)c2cc(-c3cn4nc(OC)sc4n3)oc2c1` [Example 95]: the pIC50 was 9.16.

Take `COCOc1cnc(-c2cccc(COc3cc(OC)cc4oc(-c5cn6nc(OC)sc6n5)cc34)c2)cn1` [Example 58]: the pIC50 is 8.91.

Regarding `COc1cc(OCc2cncc(-c3ccccc3)c2)c2cc(-c3cn4nc(OC)sc4n3)oc2c1` [Example 72], the pIC50 is 8.14.

`COc1cc(OCc2cccc(-c3cccnc3)c2)c2cc(-c3cn4nc(OC)sc4n3)oc2c1` [Example 15]: the pIC50 is 8.19.

`COc1cc(OCc2ccnc(C3COc4ccccc4O3)n2)c2cc(-c3cn4nc(OC)sc4n3)oc2c1` (centres unmarked) [Example 104]: the pIC50 is 9.07.

For `COc1cc(OCc2cccc(-c3coc(C(N)=O)c3)c2)c2cc(-c3cn4nc(OC)sc4n3)oc2c1` [Example 41], the pIC50 was 8.06.

Consider `COc1cc(OCc2cccc(-c3ncc(Cl)cc3C)c2)c2cc(-c3cn4nc(OC)sc4n3)oc2c1` [Example 52], for which the pIC50 is 9.25.

On to `COc1cc(OCc2cccc(-c3csc(C)n3)c2)c2cc(-c3cn4nc(OC)sc4n3)oc2c1` [Example 11], for which the negative-log IC50 (pIC50) is 8.44.

As for `COc1cc(COc2cc(OC)cc3oc(-c4cn5nc(OC)sc5n4)cc23)cc(-c2ccc(Cl)nc2)c1` [Example 66, 6-(4-((3-(6-Chloropyridin-3-yl)-5-methoxybenzyl)oxy)-6-methoxybenzofuran-2-yl)-2-methoxyimidazo[2,1b][1,3,4]thiadiazole], the pIC50 was 9.24.

As for `COc1cc(OCc2cccc(-c3ccc(F)nc3)c2)c2cc(-c3cn4nc(OC)sc4n3)oc2c1` [Example 7], the pIC50 was 8.89.

`COc1ncc(-c2cccc(COc3cc(Cl)cc4oc(-c5cn6nc(OC)sc6n5)cc34)c2)cn1` [Example 107, 6-(6-Chloro-4-((3-(2-methoxypyrimidin-5-yl)benzyl)oxy)benzofuran-2-yl)-2-methoxyimidazo[2,1-b][1,3,4]thiadiazole]: the pIC50 is 8.96.

In the case of `COc1cc(OCc2cccc(-c3cnc(C#N)cn3)c2)c2cc(-c3cn4nc(OC)sc4n3)oc2c1` [Example 42], the pIC50 is 8.98.

`COc1cc(OCc2cccc(-c3cnc(OC)nc3)n2)c2cc(-c3cn4nc(OC)sc4n3)oc2c1` [Example 77]: the pIC50 was 8.66.

On to `COc1cc(OCc2cccc(-c3ccc(C(=O)N4CCOCC4)nc3)c2)c2cc(-c3cn4nc(OC)sc4n3)oc2c1` [Example 57], for which the pIC50 was 8.78.

On to `COc1cc(OCc2cccc(-c3ccc(OC4CCCCO4)cc3)c2)c2cc(-c3cn4nc(OC)sc4n3)oc2c1` (centres unmarked) [Example 88], for which the pIC50 is 8.96.

In the case of `COc1cc(OCc2cccc(-c3ccc(C(=O)O)nc3)c2)c2cc(-c3cn4nc(OC)sc4n3)oc2c1` [Example 84, 5-(3-(((6-Methoxy-2-(2-methoxyimidazo[2,1-b][1,3,4]thiadiazol-6-yl)benzofuran-4-yl)oxy)methyl)phenyl)picolinic acid], the pIC50 is 7.19.

Regarding `COc1cc(OCc2cccc(-c3ccsc3)c2)c2cc(-c3cn4nc(OC)sc4n3)oc2c1` [Example 9], the pIC50 was 8.90.

Regarding `COc1cc(OCc2cccc(-c3nc(CO)c(C)s3)c2)c2cc(-c3cn4nc(OC)sc4n3)oc2c1` [Example 106, (2-(3-(((6-Methoxy-2-(2-methoxyimidazo[2,1-b][1,3,4]thiadiazol-6-yl)benzofuran-4-yl)oxy)methyl)phenyl)-5-methylthiazol-4-yl)methanol], the pIC50 was 8.80.

As to `COCCN(C)C(=O)c1ccc(-c2cccc(COc3cc(OC)cc4oc(-c5cn6nc(OC)sc6n5)cc34)c2)cn1` [Example 85, 5-(3-(((6-Methoxy-2-(2-methoxyimidazo[2,1-b][1,3,4]thiadiazol-6-yl)benzofuran-4-yl)oxy)methyl)phenyl)-N-(2-methoxyethyl)-N-methylpicolinamide], the pIC50 is 8.83.

Regarding `COc1cc(OCc2cccc(-c3ccc(C(C)OC4CCCCO4)cn3)c2)c2cc(-c3cn4nc(OC)sc4n3)oc2c1` (centres unmarked) [Example 86, 2-Methoxy-6-(6-methoxy-4-((3-(5-(1-((tetrahydro-2H-pyran-2-yl)oxy)ethyl)pyridin-2-yl)benzyl)oxy)benzofuran-2-yl)imidazo[2,1-b][1,3,4]thiadiazole], the pIC50 was 9.25.

For `COc1cc(OCc2cccc(-c3ccnc(F)c3)c2)c2cc(-c3cn4nc(OC)sc4n3)oc2c1` [Example 55], the pIC50 was 9.16.

As for `COc1ccc(COC(C)c2ccc(-c3cccc(COc4cc(OC)cc5oc(-c6cn7nc(OC)sc7n6)cc45)c3)nc2)cc1` (centres unmarked) [Example 61], the pIC50 was 9.00.

`COc1cc(OCc2cccc(-c3ncccn3)c2)c2cc(-c3cn4nc(OC)sc4n3)oc2c1` [Example 3, 2-Methoxy-6-(6-methoxy-4-((3-(pyrimidin-2-yl)benzyl)oxy)benzofuran-2-yl)imidazo[2,1-b][1,3,4]thiadiazole]: the pIC50 is 8.51.

In the case of `COc1cc(OCc2cc(F)cc(-c3cnc(OC)nc3)c2)c2cc(-c3cn4nc(OC)sc4n3)oc2c1` [Example 83, 6-(4-((3-Fluoro-5-(2-methoxypyrimidin-5-yl)benzyl)oxy)-6-methoxybenzofuran-2-yl)-2-methoxyimidazo[2,1-b][1,3,4]thiadiazole], the pIC50 is 9.41.

In the case of `COc1cc(OCc2ccnc(-c3csc(C)n3)n2)c2cc(-c3cn4nc(OC)sc4n3)oc2c1` [Example 102], the pIC50 is 9.14.

As for `COc1cc(OCc2cccc(-c3ccc(O)cc3)c2)c2cc(-c3cn4nc(OC)sc4n3)oc2c1` [Example 90], the pIC50 was 8.31.

Turning to `COc1cc(OCc2ccnc(C3(c4ccccc4)CC3)n2)c2cc(-c3cn4nc(OC)sc4n3)oc2c1` [Example 105], the pIC50 was 8.97.

On to `COc1cc(OCc2cccc(-c3cnc(OC)nc3OC)c2)c2cc(-c3cn4nc(OC)sc4n3)oc2c1` [Example 19], for which the pIC50 is 8.62.

`COc1cc(OCc2ccnc(-c3cccc(C#N)c3)n2)c2cc(-c3cn4nc(OC)sc4n3)oc2c1` [Example 99]: the pIC50 is 7.31.

As to `COc1cc(OCc2cccc(-c3ccc(C)cn3)c2)c2cc(-c3cn4nc(OC)sc4n3)oc2c1` [Example 25], the pIC50 was 8.69.
